Experimental data: US10081635B2, “Substituted N-(pyrrolidine-3-yl)-7H-pyrrolo[2,3-D]pyrimidine-4-amine as janus kinase inhibitor” (YANG JI CHEMICAL CO., LTD., priority 2014, dated 2018)

Columns and labels:
Format in all cases: biochemical
Human JAK1 = Human JAK1 (Homo sapiens (Human), UniProt P23458); assay: In vitro kinase inhibition test, JAK1 (33P-ATP filter scintillation); conditions: compound at 1 uM; read-out: JAK1 kinase-phosphorylation inhibitory level (% inhibition)
Method: (§1) 1. In Vitro Kinase Inhibition Test
(§2) Kinases used were human-derived JAK1, JAK2, JAK3, and TYK2 (Millipore, Germany). Each of these kinases was diluted with a suitable buffer solution as described below, and then mixed with reagents.
Tris(hydroxymethyl)aminomethane (TRIS) and ethylenediaminetetraacetic acid (EDTA) were dissolved in distilled water at a concentration of 20 mM and 0.2 mM, respectively, and 100 uL of β-mercaptoethanol, 10 uL of Brij-35™, and 5 mL of glycerol, each per 100 mL of the solution, were added to the solution, thereby preparing a JAK1 dilution buffer solution.
(§3) Each compound was dissolved in a 100% DMSO solution at a 50 uM concentration. This solution was reacted with reagents in wells on a 96-well plate to reach a final concentration of 1 uM. Detailed experimental methods for each kinase are described below.
After reaction for about 40 minutes at room temperature, the reaction was stopped by adding 5 uL of a 3% (v/v) phosphoric acid solution. […] The methanol drying is a drying process using an azeotropic effect, wherein methanol is added into an aqueous solution for drying.
(§4) In Tables 5 and 6, the numbers in the “Example” column, which are identification numbers of the examples, indicate the compounds synthesized in the corresponding examples, the values in the “JAK1”, “JAK2”, “JAK3”, and “TYK2” columns represent kinase-phosphorylation inhibitory levels as a percentage (%) of the compounds synthesized in the corresponding examples at a 1 uM concentration. In Tables 5 and 6, negative values substantially indicate no inhibitory effect.
(§5) The inhibitory levels (% inhibition) represent a percentage of reduction in phosphorylation activity in each test group with respect to the phosphorylation activity of a corresponding kinase in a negative control group lacking any of the compounds synthesized in the examples. % inhibition=[(Scintillation value of Test compound non-treatment group−Scintillation value of Test compound treatment group)/(Scintillation value of Test compound non-treatment group)]×100

Human JAK2 = Human JAK2 (Homo sapiens (Human), UniProt O60674); assay: In vitro kinase inhibition test, JAK2 (33P-ATP filter scintillation); conditions: compound at 1 uM; read-out: JAK2 kinase-phosphorylation inhibitory level (% inhibition)
Human JAK2, sequence (O60674 whole entry): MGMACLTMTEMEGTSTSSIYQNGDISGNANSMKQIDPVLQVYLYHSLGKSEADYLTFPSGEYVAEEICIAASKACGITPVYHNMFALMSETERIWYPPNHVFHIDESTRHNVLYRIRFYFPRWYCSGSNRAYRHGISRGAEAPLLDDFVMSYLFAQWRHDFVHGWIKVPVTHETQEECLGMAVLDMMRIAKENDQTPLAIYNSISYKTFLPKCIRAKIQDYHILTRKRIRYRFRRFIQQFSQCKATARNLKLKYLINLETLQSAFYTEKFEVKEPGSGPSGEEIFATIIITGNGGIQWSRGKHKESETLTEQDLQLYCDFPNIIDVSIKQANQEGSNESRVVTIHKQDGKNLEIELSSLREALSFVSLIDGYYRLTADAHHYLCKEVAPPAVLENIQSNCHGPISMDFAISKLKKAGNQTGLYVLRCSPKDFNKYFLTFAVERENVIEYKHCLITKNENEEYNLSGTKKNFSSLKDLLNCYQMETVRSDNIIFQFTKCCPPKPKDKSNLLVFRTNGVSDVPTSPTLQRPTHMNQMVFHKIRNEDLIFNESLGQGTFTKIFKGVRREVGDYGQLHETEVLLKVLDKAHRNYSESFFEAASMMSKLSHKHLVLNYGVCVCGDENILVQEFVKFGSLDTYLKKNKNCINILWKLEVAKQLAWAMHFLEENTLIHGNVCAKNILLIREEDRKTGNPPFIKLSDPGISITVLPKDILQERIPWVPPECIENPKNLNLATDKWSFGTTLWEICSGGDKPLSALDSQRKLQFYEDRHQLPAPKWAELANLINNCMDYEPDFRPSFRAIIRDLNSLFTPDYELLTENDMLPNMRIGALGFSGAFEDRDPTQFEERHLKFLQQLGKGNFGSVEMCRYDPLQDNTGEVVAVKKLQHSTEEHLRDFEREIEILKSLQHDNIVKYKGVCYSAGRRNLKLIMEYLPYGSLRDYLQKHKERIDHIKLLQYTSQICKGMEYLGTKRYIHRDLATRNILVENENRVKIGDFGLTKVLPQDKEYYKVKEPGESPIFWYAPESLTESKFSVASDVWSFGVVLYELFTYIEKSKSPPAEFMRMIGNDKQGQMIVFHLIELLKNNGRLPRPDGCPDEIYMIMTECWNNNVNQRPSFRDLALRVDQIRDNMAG
Method: as §1, §2
(§6) 3-morpholinopropane-1-sulfonic acid (MOPS) and EDTA were dissolved in distilled water at a concentration of 20 mM and 1 mM, respectively, and 100 uL of β-mercaptoethanol, 10 uL of Brij-35™, 5 mL of glycerol, and 100 mg of bovine serum albumin (BSA), each per 100 mL of the solution, were added to the solution, thereby preparing a JAK2, JAK3, and TYK2 dilution buffer solution.
as §3
(§7) After reaction for about 40 minutes at room temperature, the reaction was stopped by adding 5 uL of a 3% (v/v) phosphoric acid solution.
as §4, §5

Human JAK3 = Human JAK3 (Homo sapiens (Human), UniProt P52333); assay: In vitro kinase inhibition test, JAK3 (33P-ATP filter scintillation); conditions: compound at 1 uM; read-out: JAK3 kinase-phosphorylation inhibitory level (% inhibition)
Human JAK3, sequence (P52333 whole entry): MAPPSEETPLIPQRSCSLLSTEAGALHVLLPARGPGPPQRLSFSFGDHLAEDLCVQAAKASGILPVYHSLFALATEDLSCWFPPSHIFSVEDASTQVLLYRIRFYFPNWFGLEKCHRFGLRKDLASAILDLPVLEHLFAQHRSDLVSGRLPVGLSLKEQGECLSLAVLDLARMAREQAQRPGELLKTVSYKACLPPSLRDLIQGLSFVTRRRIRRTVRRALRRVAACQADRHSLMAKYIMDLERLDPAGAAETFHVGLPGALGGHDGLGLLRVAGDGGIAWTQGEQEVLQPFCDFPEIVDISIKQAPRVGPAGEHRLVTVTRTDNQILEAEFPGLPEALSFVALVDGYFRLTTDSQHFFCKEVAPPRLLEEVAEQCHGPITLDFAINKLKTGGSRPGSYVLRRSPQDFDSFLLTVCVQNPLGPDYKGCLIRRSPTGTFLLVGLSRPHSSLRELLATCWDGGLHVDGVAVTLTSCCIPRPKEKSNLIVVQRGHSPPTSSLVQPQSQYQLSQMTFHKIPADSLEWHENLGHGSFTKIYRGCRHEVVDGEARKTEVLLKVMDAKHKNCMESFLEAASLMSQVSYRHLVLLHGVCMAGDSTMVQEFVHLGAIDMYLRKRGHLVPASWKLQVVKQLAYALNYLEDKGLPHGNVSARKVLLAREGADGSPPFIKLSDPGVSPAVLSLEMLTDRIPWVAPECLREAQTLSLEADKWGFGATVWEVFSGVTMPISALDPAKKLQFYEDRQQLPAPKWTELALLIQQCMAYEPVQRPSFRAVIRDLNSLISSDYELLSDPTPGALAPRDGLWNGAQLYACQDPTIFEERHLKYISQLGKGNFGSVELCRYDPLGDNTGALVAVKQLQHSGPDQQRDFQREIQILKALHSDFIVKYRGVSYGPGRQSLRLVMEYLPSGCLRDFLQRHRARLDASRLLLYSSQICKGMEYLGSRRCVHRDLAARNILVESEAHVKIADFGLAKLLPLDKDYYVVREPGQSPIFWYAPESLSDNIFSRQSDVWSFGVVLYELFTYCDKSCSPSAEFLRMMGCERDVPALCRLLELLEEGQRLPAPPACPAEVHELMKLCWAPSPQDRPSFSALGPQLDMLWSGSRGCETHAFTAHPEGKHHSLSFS
Method: as §1, §2, §6, §3, §7, §4, §5

Human TYK2 = Human TYK2 (Homo sapiens (Human), UniProt P29597); assay: In vitro kinase inhibition test, TYK2 (33P-ATP filter scintillation); conditions: compound at 1 uM; read-out: TYK2 kinase-phosphorylation inhibitory level (% inhibition)
Human TYK2, sequence (P29597 whole entry): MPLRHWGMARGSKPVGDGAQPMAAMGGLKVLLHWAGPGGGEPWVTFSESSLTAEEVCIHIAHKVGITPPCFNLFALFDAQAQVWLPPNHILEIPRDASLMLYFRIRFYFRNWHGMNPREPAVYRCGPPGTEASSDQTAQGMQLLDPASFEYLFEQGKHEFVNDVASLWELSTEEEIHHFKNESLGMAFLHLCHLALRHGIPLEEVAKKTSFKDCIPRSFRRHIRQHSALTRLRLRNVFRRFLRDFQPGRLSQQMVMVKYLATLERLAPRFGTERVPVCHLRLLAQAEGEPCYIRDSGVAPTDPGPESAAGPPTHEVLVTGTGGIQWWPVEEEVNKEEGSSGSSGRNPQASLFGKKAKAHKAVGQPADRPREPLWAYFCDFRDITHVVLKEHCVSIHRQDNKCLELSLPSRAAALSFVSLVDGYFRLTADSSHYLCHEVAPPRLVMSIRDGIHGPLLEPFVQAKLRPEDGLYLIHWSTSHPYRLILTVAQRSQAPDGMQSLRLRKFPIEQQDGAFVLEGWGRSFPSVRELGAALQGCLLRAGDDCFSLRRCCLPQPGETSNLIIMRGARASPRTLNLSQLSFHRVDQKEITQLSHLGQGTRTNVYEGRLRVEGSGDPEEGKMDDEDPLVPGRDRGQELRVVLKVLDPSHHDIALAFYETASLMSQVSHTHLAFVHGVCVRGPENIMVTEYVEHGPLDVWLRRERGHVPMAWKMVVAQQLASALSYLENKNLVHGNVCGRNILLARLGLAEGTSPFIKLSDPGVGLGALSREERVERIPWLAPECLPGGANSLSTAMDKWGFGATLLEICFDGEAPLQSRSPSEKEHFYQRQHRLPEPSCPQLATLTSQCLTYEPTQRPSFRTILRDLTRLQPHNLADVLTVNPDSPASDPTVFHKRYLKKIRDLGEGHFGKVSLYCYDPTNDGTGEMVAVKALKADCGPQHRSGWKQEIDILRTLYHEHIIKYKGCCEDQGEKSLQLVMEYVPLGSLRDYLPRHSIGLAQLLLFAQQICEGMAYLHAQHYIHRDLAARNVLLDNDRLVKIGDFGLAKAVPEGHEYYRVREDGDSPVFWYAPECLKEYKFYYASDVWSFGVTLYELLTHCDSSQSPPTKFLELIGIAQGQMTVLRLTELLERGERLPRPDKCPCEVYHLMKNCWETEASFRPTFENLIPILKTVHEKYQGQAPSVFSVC
Method: as §1, §2, §6, §3, §7, §4, §5

Human JAK1, sequence (P23458 whole entry): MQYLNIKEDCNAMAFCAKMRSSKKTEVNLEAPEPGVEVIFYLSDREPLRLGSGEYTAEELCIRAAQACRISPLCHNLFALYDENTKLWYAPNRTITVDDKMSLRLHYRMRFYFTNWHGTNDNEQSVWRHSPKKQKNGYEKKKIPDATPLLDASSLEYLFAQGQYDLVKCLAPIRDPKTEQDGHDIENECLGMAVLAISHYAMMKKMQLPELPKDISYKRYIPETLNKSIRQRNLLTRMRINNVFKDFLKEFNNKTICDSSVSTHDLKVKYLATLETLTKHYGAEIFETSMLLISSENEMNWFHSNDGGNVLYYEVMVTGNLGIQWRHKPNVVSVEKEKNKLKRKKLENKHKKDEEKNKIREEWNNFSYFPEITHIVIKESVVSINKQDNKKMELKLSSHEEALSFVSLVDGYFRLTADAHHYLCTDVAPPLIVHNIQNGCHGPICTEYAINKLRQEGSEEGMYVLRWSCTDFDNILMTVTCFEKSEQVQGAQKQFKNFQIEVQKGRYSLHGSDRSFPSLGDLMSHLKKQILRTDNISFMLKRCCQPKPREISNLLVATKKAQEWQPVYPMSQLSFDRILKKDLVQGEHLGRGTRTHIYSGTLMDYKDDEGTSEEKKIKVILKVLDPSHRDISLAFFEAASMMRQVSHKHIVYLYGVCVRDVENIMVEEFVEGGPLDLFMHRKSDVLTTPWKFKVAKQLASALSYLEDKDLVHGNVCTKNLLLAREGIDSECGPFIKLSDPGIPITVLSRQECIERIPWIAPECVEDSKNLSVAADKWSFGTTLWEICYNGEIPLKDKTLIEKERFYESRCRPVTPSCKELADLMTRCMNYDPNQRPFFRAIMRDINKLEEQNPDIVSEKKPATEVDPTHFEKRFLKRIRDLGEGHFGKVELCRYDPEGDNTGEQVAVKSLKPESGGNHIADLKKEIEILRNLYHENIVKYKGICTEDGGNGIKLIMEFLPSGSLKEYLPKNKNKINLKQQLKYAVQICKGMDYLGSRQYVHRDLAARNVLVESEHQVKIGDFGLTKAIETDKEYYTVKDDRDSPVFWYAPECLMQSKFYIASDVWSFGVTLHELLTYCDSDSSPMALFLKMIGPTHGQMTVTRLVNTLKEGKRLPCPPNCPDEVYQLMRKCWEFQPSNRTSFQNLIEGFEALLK

Compound | inhibition at 1 µM (Human JAK1) [%] | inhibition at 1 µM (Human JAK2) [%] | inhibition at 1 µM (Human JAK3) [%] | inhibition at 1 µM (Human TYK2) [%]
CCCCNC(=O)N1C[C@H](N(C)c2ncnc3[nH]ccc23)C2(CC2)C1 [Example 21, (R)-N-butyl-7-(methyl(7H-pyrrolo[2,3-d]pyrimidin-4-yl)amino)-5-azaspiro[2.4]heptane-5-carboxamide] | 94 | -3 | 31 | 30
CN(c1ncnc2[nH]ccc12)[C@H]1CN(C(=O)NC2CCCCC2)CC12CC2 [Example 22, (R)-N-cyclohexyl-7-(methyl(7H-pyrrolo[2,3-d]pyrimidin-4-yl)amino)-5-azaspiro[2.4]heptane-5-carboxamide] | 90 | -5 | 16 | 15
CN(c1ncnc2[nH]ccc12)[C@H]1CN(C(=O)Nc2ccccc2)CC12CC2 [Example 23, (R)-7-(methyl(7H-pyrrolo[2,3-d]pyrimidin-4-yl)amino)-N-phenyl-5-azaspiro[2.4]heptane-5-carboxamide] | 98 | 52 | 50 | 78
CN(c1ncnc2[nH]ccc12)[C@H]1CN(C(=O)Nc2ccc(F)cc2)CC12CC2 [Example 24, (R)-N-(4-fluorophenyl)-7-(methyl(7H-pyrrolo[2,3-d]pyrimidin-4-yl)amino)-5-azaspiro[2.4]heptane-5-carboxamide] | 94 | 6 | 48 | 47
CN(c1ncnc2[nH]ccc12)[C@H]1CN(C(=O)Nc2ccc(Cl)cc2Cl)CC12CC2 [Example 25, (R)-N-(2,4-dichlorophenyl)-7-(methyl(7H-pyrrolo[2,3-d]pyrimidin-4-yl)amino)-5-azaspiro[2.4]heptane-5-carboxamide] | 88 | 5 | 25 | 48
CN(c1ncnc2[nH]ccc12)[C@H]1CN(C(=O)Nc2ccc(Cl)c(Cl)c2)CC12CC2 [Example 26, (R)-N-(3,4-dichlorophenyl)-7-(methyl(7H-pyrrolo[2,3-d]pyrimidin-4-yl)amino)-5-azaspiro[2.4]heptane-5-carboxamide] | 94 | 13 | 51 | 42
CN(c1ncnc2[nH]ccc12)[C@H]1CN(C(=O)Nc2cc(Cl)ccc2Cl)CC12CC2 [Example 27, (R)-N-(2,5-dichlorophenyl)-7-(methyl(7H-pyrrolo[2,3-d]pyrimidin-4-yl)amino)-5-azaspiro[2.4]heptane-5-carboxamide] | 91 | -1 | 17 | 27
CN(c1ncnc2[nH]ccc12)[C@H]1CN(C(=O)Nc2cccc(Cl)c2Cl)CC12CC2 [Example 28, (R)-N-(2,3-dichlorophenyl)-7-(methyl(7H-pyrrolo[2,3-d]pyrimidin-4-yl)amino)-5-azaspiro[2.4]heptane-5-carboxamide] | 91 | 23 | 40 | 39
Cc1ccc(NC(=O)N2C[C@H](N(C)c3ncnc4[nH]ccc34)C3(CC3)C2)cc1Cl [Example 29, (R)-N-(3-chloro-4-methylphenyl)-7-(methyl(7H-pyrrolo[2,3-d]pyrimidin-4-yl)amino)-5-azaspiro[2.4]heptane-5-carboxamide] | 92 | 19 | 39 | 43

Next, values leading:

inhibition at 1 µM (Human JAK1) [%] | inhibition at 1 µM (Human JAK2) [%] | inhibition at 1 µM (Human JAK3) [%] | inhibition at 1 µM (Human TYK2) [%] | Compound
80 | -11 | 14 | 27 | CN(c1ncnc2[nH]ccc12)[C@H]1CN(C(=O)Nc2ccccc2-c2ccccc2)CC12CC2 [Example 30, (R)-N-([1,1′-biphenyl]-2-yl)-7-(methyl(7H-pyrrolo[2,3-d]pyrimidin-4-yl)amino)-5-azaspiro[2.4]heptane-5-carboxamide]
62 | -26 | 13 | 1 | CN(c1ncnc2[nH]ccc12)[C@H]1CN(C(=S)Nc2cc(C(F)(F)F)cc(C(F)(F)F)c2)CC12CC2 [Example 31, (R)-N-(3,5-bis(trifluoromethyl)phenyl)-7-(methyl(7H-pyrrolo[2,3-d]pyrimidin-4-yl)amino)-5-azaspiro[2.4]heptane-5-carbothioamide]
97 | 68 | 59 | 86 | CN(c1ncnc2[nH]ccc12)[C@H]1CN(S(=O)(=O)C(F)(F)F)CC12CC2 [Example 32, (R)-N-methyl-N-(5-((trifluoromethyl)sulfonyl)-5-azaspiro[2.4]heptan-7-yl)-7H-pyrrolo[2,3-d]pyrimidin-4-amine]
98 | 84 | 70 | 88 | CCS(=O)(=O)N1C[C@H](N(C)c2ncnc3[nH]ccc23)C2(CC2)C1 [Example 33, (R)-N-(5-(ethylsulfonyl)-5-azaspiro[2.4]heptan-7-yl)-N-methyl-7H-pyrrolo[2,3-d]pyrimidin-4-amine]
97 | 76 | 56 | 72 | CC(C)S(=O)(=O)N1C[C@H](N(C)c2ncnc3[nH]ccc23)C2(CC2)C1 [Example 34, (R)-N-(5-(isopropylsulfonyl)-5-azaspiro[2.4]heptan-7-yl)-N-methyl-7H-pyrrolo[2,3-d]pyrimidin-4-amine]
99 | 78 | 77 | 89 | CCCS(=O)(=O)N1C[C@H](N(C)c2ncnc3[nH]ccc23)C2(CC2)C1 [Example 35, (R)-N-methyl-N-(5-(propylsulfonyl)-5-azaspiro[2.4]heptan-7-yl)-7H-pyrrolo[2,3-d]pyrimidin-4-amine]
97 | 90 | 52 | 91 | CN(c1ncnc2[nH]ccc12)[C@H]1CN(S(=O)(=O)c2ccccc2)CC12CC2 [Example 36, (R)-N-methyl-N-(5-(phenylsulfonyl)-5-azaspiro[2.4]heptan-7-yl)-7H-pyrrolo[2,3-d]pyrimidin-4-amine]
98 | 84 | 61 | 90 | CN(c1ncnc2[nH]ccc12)[C@H]1CN(S(=O)(=O)c2ccccc2F)CC12CC2 [Example 37, (R)-N-(5-((2-fluorophenyl)sulfonyl)-5-azaspiro[2.4]heptan-7-yl)-N-methyl-7H-pyrrolo[2,3-d]pyrimidin-4-amine]
100 | 97 | 84 | 97 | CN(c1ncnc2[nH]ccc12)[C@H]1CN(S(=O)(=O)c2cccc(F)c2)CC12CC2 [Example 38, (R)-N-(5-((3-fluorophenyl)sulfonyl)-5-azaspiro[2.4]heptan-7-yl)-N-methyl-7H-pyrrolo[2,3-d]pyrimidin-4-amine]
99 | 95 | 65 | 93 | CN(c1ncnc2[nH]ccc12)[C@H]1CN(S(=O)(=O)c2ccc(F)cc2)CC12CC2 [Example 39, (R)-N-(5-((4-fluorophenyl)sulfonyl)-5-azaspiro[2.4]heptan-7-yl)-N-methyl-7H-pyrrolo[2,3-d]pyrimidin-4-amine]
